Experimental data reported in ChEMBL document CHEMBL5576057, “Discovery of DS44470011: An oral hypoxia-inducible factor prolyl hydroxylase inhibitor for the treatment of renal anemia” (Bioorg Med Chem Lett, 2024).
Blank lines part the entries; values can stand above or below the molecule they belong to. Calls of active or inactive are those of the source. No cut-off for these calls is given here.

What was measured:
Egl nine homolog 1 = Egl nine homolog 1 (Homo sapiens, UniProt Q9GZT9)
Hep 3B2 = assay: […] activity against human Hep3B cells assessed as increase of erythropoietin release by measuring effective concentration; format: functional, cell-based
[1] = Volume of distribution at steady state in Cynomolgous monkey at 1 mg/kg,iv; format: ADME, organism-based, Macaca fascicularis; settings: cynomolgus monkey, in vivo, read-out: Vdss
[2] = Metabolic stability in Cynomolgous monkey assessed as compound remaining; format: ADME, Macaca fascicularis; settings: cynomolgus monkey
Cynomolgus monkey [3] = assay: animal or person; settings: Macaca fascicularis, in Primates, po, 24 h
Cynomolgus monkey [4] = assay: […] activity against Cynomolgous monkey assessed as increase of erythropoietin level in plasma at po administration measured after 12 hrs; format: functional, organism-based; settings: Macaca fascicularis
[5] = Cmax in Cynomolgous monkey at 3 mg/kg,po; format: ADME, organism-based, Macaca fascicularis; settings: cynomolgus monkey, in vivo
[6] = Half life in Cynomolgous monkey at 1 mg/kg,iv; format: ADME, organism-based, Macaca fascicularis; settings: cynomolgus monkey, in vivo
[7] = Protein binding in Cynomolgous monkey assessed as assessed as unbound fraction; format: ADME, Macaca fascicularis; settings: cynomolgus monkey
[8] = Lipophilicity, logD of the compound; format: physicochemical; settings: octanol/water
[9] = AUC in Cynomolgous monkey at 3 mg/kg,po; format: ADME, organism-based, Macaca fascicularis; settings: cynomolgus monkey, in vivo

Chain of Egl nine homolog 1 (Q9GZT9 whole entry): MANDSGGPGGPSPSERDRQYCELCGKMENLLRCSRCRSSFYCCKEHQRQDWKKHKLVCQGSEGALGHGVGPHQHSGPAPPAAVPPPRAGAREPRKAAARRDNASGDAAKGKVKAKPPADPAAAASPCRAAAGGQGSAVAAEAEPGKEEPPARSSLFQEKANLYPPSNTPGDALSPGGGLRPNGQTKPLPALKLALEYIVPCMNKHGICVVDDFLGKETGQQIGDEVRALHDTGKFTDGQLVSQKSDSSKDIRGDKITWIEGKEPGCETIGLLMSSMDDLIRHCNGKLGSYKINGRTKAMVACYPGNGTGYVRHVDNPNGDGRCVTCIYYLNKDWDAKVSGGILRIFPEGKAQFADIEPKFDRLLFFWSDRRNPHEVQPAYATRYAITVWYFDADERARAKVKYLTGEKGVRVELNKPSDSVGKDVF

Structure (SMILES): Cc1nc(Cc2ccc(-c3ccccc3)cc2)c(O)c(C(=O)NCC(=O)O)n1
IC50 (Egl nine homolog 1): 10 µM | EC50 (Hep 3B2): 27 µM

Structure (SMILES): Cc1nc(Cc2ccc(-c3ccccc3)cc2)nc(C(=O)NCC(=O)O)c1O
Vd [1]: 0.06 L/kg | Stability [2]: 90% | IC50 (Egl nine homolog 1): 1.5 µM | ED10 (Cynomolgus monkey [3]): 2.2 mg/kg | Activity (Cynomolgus monkey [4]): Active | Cmax [5]: 28000 ng/mL | half-life [6]: 13 h | Fu [7]: 0.6% | logD [8]: 0.8 | EC50 (Hep 3B2): 8.4 µM | AUC [9]: 380 µg·h/mL

Structure (SMILES): Cc1nc(Cc2ccc(C(C)(C)C)cc2)nc(C(=O)NCC(=O)O)c1O
IC50 (Egl nine homolog 1): 3.9 µM | EC50 (Hep 3B2): 25 µM

Structure (SMILES): Cc1nc(Cc2ccc(-c3ccccc3)cc2)nc(C(=O)N[C@@H](C)C(=O)O)c1O
IC50 (Egl nine homolog 1): 10 µM | EC50 (Hep 3B2): 14 µM

Structure (SMILES): CCc1nc(Cc2ccc(-c3ccccc3)cc2)nc(C(=O)NCC(=O)O)c1O
IC50 (Egl nine homolog 1): 7.3 µM | EC50 (Hep 3B2): 16 µM

Structure (SMILES): O=C(O)CNC(=O)c1nc(Cc2ccc(-c3ccccc3)cc2)nc(C(F)F)c1O
IC50 (Egl nine homolog 1): 4.1 µM | EC50 (Hep 3B2): 105 µM

Structure (SMILES): Cc1nc(Cc2ccc(F)cc2)c(O)c(C(=O)NCC(=O)O)n1
IC50 (Egl nine homolog 1): 11 µM | EC50 (Hep 3B2): 51 µM

Structure (SMILES): Cc1nc(Cc2ccc(C(F)(F)F)cc2)nc(C(=O)NCC(=O)O)c1O
IC50 (Egl nine homolog 1): 11 µM | EC50 (Hep 3B2): 29 µM

Structure (SMILES): Cc1nc(C(=O)NCC(=O)O)c(O)c(-c2ccc(F)cc2)n1
IC50 (Egl nine homolog 1): 39 µM | EC50 (Hep 3B2): 108 µM

Structure (SMILES): Cc1nc(CCc2ccc(F)cc2)c(O)c(C(=O)NCC(=O)O)n1
IC50 (Egl nine homolog 1): 8.1 µM | EC50 (Hep 3B2): 36 µM

Structure (SMILES): Cc1nc(Cc2cccc(-c3ccccc3)c2)nc(C(=O)NCC(=O)O)c1O
IC50 (Egl nine homolog 1): 20 µM | EC50 (Hep 3B2): 61 µM

Structure (SMILES): Cc1nc(C(C)c2ccc(-c3ccccc3)cc2)nc(C(=O)NCC(=O)O)c1O (racemic)
IC50 (Egl nine homolog 1): 18 µM | EC50 (Hep 3B2): 16 µM

Structure (SMILES): Cc1nc(C)c(O)c(C(=O)NCC(=O)O)n1
IC50 (Egl nine homolog 1): 11 µM

Continued, in another order:

IC50 (Egl nine homolog 1): 55 µM
Structure (SMILES): Cc1nc(C(F)(F)c2ccc(-c3ccccc3)cc2)nc(C(=O)NCC(=O)O)c1O

EC50 (Hep 3B2): 64 µM
Structure (SMILES): O=C(O)CNC(=O)c1nc(Cl)c2ccccc2c1O
ED10 (Cynomolgus monkey [3]): 13 mg/kg | Activity (Cynomolgus monkey [4]): Active

IC50 (Egl nine homolog 1): 13 µM | EC50 (Hep 3B2): 67 µM
Structure (SMILES): Cc1nc(Cc2ccc(-c3ccccc3)cc2)nc(C(=O)NCC(=O)O)c1S

IC50 (Egl nine homolog 1): > 100 µM
Structure (SMILES): Cc1nc(Cc2ccc(-c3ccccc3)cc2)nc(C(=O)NCC(=O)O)c1C

IC50 (Egl nine homolog 1): > 100 µM
Structure (SMILES): Cc1nc(Cc2ccc(-c3ccccc3)cc2)nc(C(=O)N[C@H](C)C(=O)O)c1O

IC50 (Egl nine homolog 1): 17 µM
Structure (SMILES): Cc1nc(Cc2ccc(Cl)cc2)nc(C(=O)NCC(=O)O)c1O

IC50 (Egl nine homolog 1): 17 µM
Structure (SMILES): Cc1nc(Cc2ccccc2-c2ccccc2)nc(C(=O)NCC(=O)O)c1O

IC50 (Egl nine homolog 1): > 100 µM
Structure (SMILES): Cc1nc(Cc2ccc(-c3ccccc3)cc2)nc(C(=O)NCC(=O)O)c1N

IC50 (Egl nine homolog 1): > 100 µM
Structure (SMILES): O=C(O)CNC(=O)c1nc(Cc2ccc(-c3ccccc3)cc2)ncc1O

IC50 (Egl nine homolog 1): > 100 µM
Structure (SMILES): Cc1nc(Cc2ccc(-c3ccccc3)cc2)nc(C(=O)NCC(=O)O)c1C(=O)O
